Test in all cases: NCI anticancer screen, dose series, 48 h
Assay [1] has as its system RPMI-8226 leukemia.
For assay [2], the system named is RXF 393 renal.
Assay [3] has as its system UO-31 renal.
Assay [4] deals with SNB-75 CNS.
Assay [5] relates to NCI-H226 lung.
The subject of assay [6] is MALME-3M melanoma.
Assay [7] deals with SN12C renal.
Assay [8] has as its system HS 578T breast.
Assay [9] relates to MDA-MB-231 breast.
Assay [10] relates to KM12 colon.

Experimental findings from PubChem BioAssay (NCI) are described below.

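Cells were grown in 96-well plates and exposed to each compound for 48 hours at five concentrations; endpoints were interpolated linearly between bracketing concentrations, or set to the highest concentration if not reached. GI50 = concentration required for 50% inhibition of growth. The concentration for full growth arrest is given as TGI.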

Turning to `N#Cc1ccc(OCc2nc(N)nc(N)c2-c2ccc(Cl)c(Cl)c2)cc1`, the GI50 in assay [1] was 5.42 µM; in assay [2], 0.597 µM; in assay [3], 3.79 µM; in assay [4] it was 2.74 µM; in assay [5], 4.86 µM; in assay [6], 23.5 µM. In addition, the GI50 is 2.79 µM in assay [7], 2.65 µM in assay [8], 4.4 µM in assay [9] and 2.85 µM in [10]. Also, the TGI in assay [1] was over 100 µM; in assay [2], 30 µM; in assay [3], over 100 µM; in assay [4], 29.1 µM; in assay [5], over 100 µM; in [6] it was 84.8 µM. Further, the TGI in assay [7] was over 100 µM; in assay [8], 41.3 µM; in [9], over 100 µM; in assay [10], 84.5 µM.
Turning to `O=c1[nH]c(=O)c2cn[nH]c2[nH]1`, the GI50 in [1], in assay [2], in [3], in [4], in assay [5] and in [6] was over 100 µM in each case. The GI50 in [7], in assay [8], in assay [9] and in assay [10] was over 100 µM each time. The TGI in assay [1], in assay [2], in assay [3], in assay [4], in assay [5] and in assay [6] was over 100 µM each time. Moreover, the TGI in assay [7], in [8], in [9] and in assay [10] was over 100 µM each time.
